Results taken from patent US4179451A, “Novel hydroxy substituted 15-deoxy-5-cis-prostenoic acids and esters” (American Cyanamid Company, priority 1978, dated 1979).
Read-outs that look alike come from different tables or passages of the source.

Tests used:
[1] = test system: ulcerogenic properties of indomethacin; experiment: protection against the ulcerogenic properties of indomethacin; assay type: in vivo, Rats; details: indomethacin 20 mg./kg. s.c., score 0 (normal stomach) to 4, control 3.0
Procedure: The protection against the ulcerogenic properties of indomethacin was determined in the following manner. Rats were starved for 48 hours (water was given ad libitum). Indomethacin (20 mg./kg. of body weight) was administered by the subcutaneous route and one-half the dose of the test compound was administered by gavage at the same time. After three hours, the second half of the test compound was administered also by gavage. Five hours after the administration of indomethacin the animals were decapitated and the stomachs removed. The stomachs were washed with distilled water, blotted on gauze, cut along the larger curvature, and the contents rinsed with distilled water. The stomachs were spread out, pinned on a cork and visualized under magnifying glass for ulcers. The criteria for scoring of ulcers was as previously reported [Abdel-Galil et al. Brit. J. Pharmac. Chemotherapy 33:1-14 (1968)].
1--Petechial hemorrhage or pin point ulcer
3--Many ulcers, a few large
4--Many ulcers, mainly large
A difference of at least 0.7 unit between the scores for control animals (treated with indomethacin but not test compound) and animals treated with indomethacin and test compound is considered indicative of activity from the test compound. […]

[2] = test system: bronchospasms elicited by histamine; experiment: Bronchodilator Activity (Konzett Assays), histamine; assay type: in vivo, guinea pigs; details: Cavia porcellus; three logarithmic cumulative intravenous doses; spasmogen histamine; read-out: ED50, Spasmogenic Agent histamine
Procedure: (§1) The compounds of this invention are useful as bronchodilators for the treatment of asthma and chronic bronchitis. Bronchodilator activity is determined in guinea pigs against bronchospasms elicited by intravenous injections of 5-hydroxytryptamine, histamine or acetylcholine by the Konzett procedure. [See J. Lulling, P. Lievens, F. El Sayed and J. Prignot, Arzneimittel-Forschung, 18, 955 (1968).]
(§2) In Table IV which follows bronchodilator activity for representative compounds of this invention against one or more of three spasmogenic agents is expressed as an ED50 determined from the results obtained with three logarithmic cummulative intravenous doses. In this assay, these compounds of this invention provide an effect of longer duration than does natural l-PGE1 or l-PGE2.

[3] = test system: bronchospasms elicited by 5-hydroxytryptamine; experiment: Bronchodilator Activity (Konzett Assays), 5-hydroxytryptamine; assay type: in vivo, guinea pigs; details: Cavia porcellus; three logarithmic cumulative intravenous doses; spasmogen 5-hydroxytryptamine; read-out: ED50, Spasmogenic Agent 5-hydroxytryptamine
Procedure: as §1, §2

[4] = test system: basal gastric acid secretion; experiment: Inhibition of basal gastric acid secretion in the Acute Gastric Fistula Rat; assay type: in vivo, Female Sprague-Dawley rats; details: read-out: % Inhibition of Total Acid or Output; for inhibition in vivo at 2.5 mg/kg: intraduodenal 2.5 mg./kg.; for inhibition in vivo at 0.63 mg/kg: intraduodenal 0.63 mg./kg.
[5] = test system: gastric acid secretion; experiment: Gastric acid secretion inhibitory action (Shay rat procedure); assay type: in vivo, rats (male, CFE strain)
[6] = test system: bronchospasms elicited by acetylcholine; experiment: Bronchodilator Activity (Konzett Assays), acetylcholine; assay type: in vivo, guinea pigs; details: Cavia porcellus; three logarithmic cumulative intravenous doses; spasmogen acetylcholine; read-out: ED50, Spasmogenic Agent Acetylcholine
Procedure: as §1, §2

[7] = test system: basal gastric acid secretion; experiment: Inhibition of basal gastric acid secretion in the Acute Gastric Fistula Rat; assay type: in vivo, Female Sprague-Dawley rats; details: 1 h, intraduodenal 10 mg./kg., after 60 minutes, read-out: % Inhibition of Total Acid or Output
Procedure: Inhibition of basal gastric acid secretion can be determined by the following procedure. Female Sprague-Dawley rats weighing 140-160 grams are fastened in individual cages for 18-24 hours. The rats are then lightly anesthetized with ether and their front teeth extracted to avoid destruction of the plastic cannula. A midline incision is then made and the stomach and duodenum exposed. A flanged polyvinyl tube is inserted into the fundic portion of the stomach and secured with a purse string suture line using 4-O Mersilene. The rat is then dosed by injection of the compound into the duodenum (1.0 ml. per 100 gram body weight). After dosing, the abdominal wall and skin are closed using metal wound clips. The rat is replaced in a cage containing a longitudinal slit to allow the polyvinyl tube to hang freely. An 8 ml. plastic collecting tube is attached to the flanged cannula and hangs freely below the cage. The first 30 minute sample is discarded designating this time as zero. The collecting tube is attached again and samples removed at the end of 60 and/or 120 minutes. The hourly samples are then transferred to a 15 ml. centrifuge and centrifuged for 5-10 minutes. Total and sediment volume are then recorded with supernatent volume being used as volume of secretion. A 1 ml. or less aliquot is then removed and placed in a 50 ml. beaker containing 10 ml. of distilled water. This sample is then titrated using 0.01 N to Na H to pH 7.0 using a Beckman zeromatic pH meter. Volume, titratable acidity (meq/L) and total acid output (μeq/hour) are recorded. Percent inhibition is determined by comparison with the appropriate control. Groups of three rats are used for preliminary testing, and groups of six rats are used for dose-response evaluations. All compounds are administered in a vehicle consisting of 0.5% methocel, 0.4% tween 80, and saline at a constant volume of 1 ml./100 gram rat. Samples are dispersed by sonification. Percent inhibition is calculated on basis of concurrent vehicle control.
In Table III which follows is given the effect on total acid output after 60 minutes of a 10 mg./kg. intraduodenal dose of representative compounds of this invention.

[8] = test system: mean arterial blood pressure; experiment: Hypotensive Response (normotensive rat); assay type: in vivo, Male Wistar strain rats; details: anesthetized rat
Procedure: This procedure is a modification of the techniques described by Pike et al., Prostaglandins, Nobel Symposium 2, Stockholm, June, 1966; p. 165.
Male Wistar strain rats (Royal Hart Farms) averaging approximately 250 grams in weight were fastened to rat boards in a supine position by means of canvas vests and limb ties. The femoral area was infiltrated subcutaneously with lidocaine and the iliac artery and vein were exposed and cannulated. Arterial blood pressure (systolic/diastolic) was recorded using a Statham P23 Bb pressure transducer-Offner dynograph system. To obtain a stable blood pressure, the animals were anethetized before use with pentobarbital, 30 mg./kg. of body weight intravenously, and also were given hexamethoxium bitartrate, 2 mg./kg. of body weight intravenously. The test compounds were prepared by ultrasonic dispersion in a Saline-Tween 80® vehicle. A constant intravenous dose volume of 0.5 ml. was administered and test doses ranged from 0.1 to 10.0 mg./kg. of body weight.
In Table V below are recorded the percent decrease from normal of mean arterial blood pressure induced by given doses of representative compounds of this invention.

[9] = 1 h, oral dose 10 mg./kg., after 60 minutes

Q: Which results are given for `CCCCC(O)C/C=C/[C@H]1[C@H](O)CC(=O)[C@@H]1C/C=C\CCCC(=O)O` (relative stereo) [9-oxo-11α,16-dihydroxy-5-cis; 13-trans-prostadienoic acid]?
A: Score treated ([1]; total oral dose 0.39 mg./kg. of body weight): 2.0; Score treated ([1]; total oral dose 0.78 mg./kg. of body weight): 1.0; ED50 [2]: 2.1 µg/kg; ED50 [3]: 3.6 µg/kg; inhibition in vivo at 2.5 mg/kg ([4]; 1 h, after 60 minutes): 42%; Percent Inhibition ([5]; subcutaneous dose 0.4 mg./kg.): 35%; Percent Inhibition ([5]; subcutaneous dose 0.8 mg./kg.): 44%; Percent Inhibition ([5]; subcutaneous dose 1.6 mg./kg.): 48%; ED50 [6]: 17.3 µg/kg; inhibition in vivo at 10 mg/kg [7]: 69%; % Decrease in Mean Arterial Blood Pressure ([8]; intravenous 2.1 mg./kg.): 27%

Q: Which results are given for `CCCC(C)C(O)C/C=C/[C@H]1[C@H](O)CC(=O)[C@@H]1C/C=C\CCCC(=O)O` (relative stereo) [9-oxo-11α,16-dihydroxy-17-methyl-5-cis,13-trans-prostadienoic acid]?
A: ED50 [2]: 0.49 µg/kg; ED50 [3]: 1.9 µg/kg; inhibition in vivo at 10 mg/kg [4, 9]: 89%; inhibition in vivo at 10 mg/kg ([4]; 2 h, oral dose 10 mg./kg., after 120 minutes): 85%; ED50 [6]: 3 µg/kg; inhibition in vivo at 10 mg/kg [7]: 93%; % Decrease in Mean Arterial Blood Pressure ([8]; intravenous 1.0 mg./kg.): 42%

Q: For `CCC/C=C/C(O)C/C=C/[C@H]1[C@H](O)CC(=O)[C@@H]1C/C=C\CCCC(=O)O` (relative stereo) [9-oxo-11α,16-dihydroxy-20-methyl-5-cis,13-trans,17-trans-prostatrienoic acid], which ED50 [2] is on record?
A: 2.2 µg/kg

Q: What about the ED50 [3] of the same compound?
A: 1.2 µg/kg

Q: What about the ED50 [6] of the same compound?
A: 4 µg/kg

Q: What about the inhibition in vivo at 10 mg/kg [7] of the same compound?
A: 44%

Q: What does the source list for `CCCCCC(O)C/C=C/[C@H]1[C@H](O)CC(=O)[C@@H]1C/C=C\CCCC(=O)O` (relative stereo) [9-oxo-11α,16-dihydroxy-20-methyl-5-cis,13-trans-prostadienoic acid]?
A: ED50 [2]: 0.29 µg/kg; ED50 [3]: 0.32 µg/kg; ED50 [6]: 0.72 µg/kg; inhibition in vivo at 10 mg/kg [7]: 42%

Q: With `CCCCCC(/C=C/[C@H]1[C@H](O)CC(=O)[C@@H]1C/C=C\CCCC(=O)O)CO` (relative stereo) [9-oxo-11α-hydroxy-15-hydroxymethyl-5-cis,13-trans-prostadienoic acid] as the compound, how does the inhibition in vivo at 10 mg/kg [7] read?
A: 5%

Q: With `CCCCC(C/C=C/[C@H]1[C@H](OC2CCCCO2)CC(=O)[C@@H]1C/C=C\CCCC(=O)O)OC(c1ccccc1)(c1ccccc1)c1ccccc1` (relative stereo) [9-oxo-11α-tetrahydropyranyloxy-16-triphenylmethoxy-5-cis,13-trans-prostadienoic acid] as the compound, how does the inhibition in vivo at 10 mg/kg [7] read?
A: 68%

Q: `CC/C=C/C(O)C/C=C/[C@H]1C=CC(=O)[C@@H]1C/C=C\CCCC(=O)O` (relative stereo) [9-oxo-16-hydroxy-5-cis,10,13-trans,17-trans-prostatetraenoic acid] was tested. Which inhibition in vivo at 10 mg/kg [4, 9] did it give?
A: 43%

Q: What about the inhibition in vivo at 10 mg/kg [7] of the same compound?
A: 83%

Q: What does the source list for `CCCCC(O)C/C=C/[C@H]1C=CC(=O)[C@@H]1C/C=C\CCCC(=O)O` (relative stereo) [9-oxo-16-hydroxy-5-cis-10,13-trans-prostatrienoic acid]?
A: ED50 [2]: 81 µg/kg; ED50 [3]: 125 µg/kg; ED50 [6]: 1540 µg/kg; inhibition in vivo at 10 mg/kg [7]: 44%

Q: How did the ED50 [2] turn out when `CCC/C=C/C(O)C/C=C/[C@H]1C=CC(=O)[C@@H]1C/C=C\CCCC(=O)O` (relative stereo) [9-oxo-16-hydroxy-20-methyl-5-cis,10,13-trans,17-trans-prostatetraenoic acid] was run?
A: 369 µg/kg

Q: And the ED50 [3]?
A: 625 µg/kg

Q: And the ED50 [6]?
A: 2280 µg/kg

Q: With `CCCC(C)C(O)C/C=C/[C@@H]1[C@@H](C/C=C\CCCC(=O)O)[C@@H](O)C[C@H]1O` (relative stereo) [9α,11α,16-trihydroxy-17-methyl-5-cis,13-trans-prostadienoic acid] as the compound, how does the inhibition in vivo at 0.63 mg/kg ([4]; 1 h, after 60 minutes) read?
A: 55%

Q: What about the inhibition in vivo at 2.5 mg/kg ([4]; 1 h, after 60 minutes) of the same compound?
A: 66%

Q: What about the inhibition in vivo at 0.63 mg/kg ([4]; 2 h, after 120 minutes) of the same compound?
A: 47%

Q: What about the inhibition in vivo at 2.5 mg/kg ([4]; 2 h, after 120 minutes) of the same compound?
A: 62%

Q: And the inhibition in vivo at 10 mg/kg ([4]; 2 h, intraduodenal 10 mg./kg., after 120 minutes)?
A: 98%

Q: And the inhibition in vivo at 10 mg/kg [7]?
A: 96%

Q: With `CCCCC(O)C/C=C/[C@@H]1[C@@H](C/C=C\CCCC(=O)O)[C@H](O)C[C@H]1O` (relative stereo) [9β,11α,16-trihydroxy-5-cis,13-trans-prostadienoic acid] as the compound, how does the “% Decrease in Mean Arterial Blood Pressure” value ([8]; intravenous 2.1 mg./kg.) read?
A: 24%

Q: How did the inhibition in vivo at 10 mg/kg [7] turn out when `CCCCCCCCCCOC(=O)CCC/C=C\C[C@H]1C(=O)C[C@@H](O)[C@@H]1/C=C/CC(O)CCCC` (relative stereo) [decyl 9-oxo-11α,16-dihydroxy-5-cis,13-trans-prostadienoate] was run?
A: 60%

Q: Which inhibition in vivo at 0.625 mg/kg ([4]; 1 h, oral dose 0.625 mg./kg., after 60 minutes) does the source give for `CCCCC(O)C/C=C/[C@H]1[C@H](O)CC(=O)[C@@H]1C/C=C\CCCC(=O)OC` (relative stereo) [methyl 9-oxo-11α,16-dihydroxy-5-cis,13-trans-prostadienoate] here?
A: 51%

Q: And the inhibition in vivo at 1.25 mg/kg ([4]; 1 h, oral dose 1.25 mg./kg., after 60 minutes)?
A: 75%

Q: And the inhibition in vivo at 10 mg/kg [7]?
A: 100%

Q: For `CCCC(C)C(O)C/C=C/[C@H]1[C@H](O)CC(=O)[C@@H]1C/C=C\CCCC(=O)OC` (relative stereo) [methyl 9-oxo-11α,16-dihydroxy-17-methyl-5-cis,13-trans-prostadienoate], which inhibition in vivo at 10 mg/kg [7] is on record?
A: 76%

Q: And the “% Decrease in Mean Arterial Blood Pressure” value ([8]; intravenous 1.2 mg./kg.)?
A: 42%
